According to PMC6759397 (Journal of pharmaceutical sciences, 2019):
Read-outs that look alike come from different tables or passages of the source.

Key:
P-gp = details: Caco-2 monolayers; cited from earlier work
[1] = cited from earlier work
OATP1B1 [2] = biological target: T1, OATP1B1 (Homo sapiens, UniProt Q9Y6L6); details: substrate E1S; without pre-incubation; cited from earlier work
T1 sequence (Q9Y6L6 1-691): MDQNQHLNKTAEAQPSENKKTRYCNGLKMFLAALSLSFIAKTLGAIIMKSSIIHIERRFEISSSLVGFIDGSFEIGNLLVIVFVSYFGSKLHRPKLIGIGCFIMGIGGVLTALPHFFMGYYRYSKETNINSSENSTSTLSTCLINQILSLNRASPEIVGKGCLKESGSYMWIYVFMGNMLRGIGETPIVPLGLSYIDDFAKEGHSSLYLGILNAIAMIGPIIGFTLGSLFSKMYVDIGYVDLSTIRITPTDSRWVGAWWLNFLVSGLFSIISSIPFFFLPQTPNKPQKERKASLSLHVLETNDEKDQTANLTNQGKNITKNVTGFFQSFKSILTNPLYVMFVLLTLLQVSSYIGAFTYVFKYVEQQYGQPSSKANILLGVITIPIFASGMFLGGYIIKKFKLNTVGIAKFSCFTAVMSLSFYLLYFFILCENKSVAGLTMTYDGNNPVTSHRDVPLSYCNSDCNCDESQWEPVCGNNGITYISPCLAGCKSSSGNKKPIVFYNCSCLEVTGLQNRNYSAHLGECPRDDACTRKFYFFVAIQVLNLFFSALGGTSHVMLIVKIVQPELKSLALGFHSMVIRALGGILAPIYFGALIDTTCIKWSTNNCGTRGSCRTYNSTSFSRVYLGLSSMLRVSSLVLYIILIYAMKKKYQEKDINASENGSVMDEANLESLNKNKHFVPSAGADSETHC

HEK293-OATP1B1 = test: LDH assay; assay type: cell-based, human; details: 1 h pre-incubation, EVR 0.001–10 µM, SIR 0.01–5 µM
[3] = human erythrocytes, blood concentration range 5–100 ng/ml; cited from earlier work
CYP3A5 = details: cited from earlier work
mTOR C2 = test: Immunoblot of phosphorylated AKT; assay type: cell-based, human; details: 1 h pre-incubation: EVR 0.2 µM, SIR 0.5 µM, INK-128 10 µM; vs vehicle control
[4] = cited from earlier work; remark: listed apart in the source
OATP1A2 = details: cited from earlier work
mTOR C1 = test: Immunoblot of phosphorylated p70S6K; assay type: cell-based, human; details: 1 h pre-incubation: EVR 0.2 µM, SIR 0.5 µM, INK-128 10 µM; vs vehicle control
CYP3A4 = details: cited from earlier work
OATP1B1 [5] = biological target: T1, OATP1B1; details: for OATP1B1-mediated transport ([3H]-E217βG accumulation): 1 h pre-incubation alone: EVR 0.2 µM, SIR 0.5 µM, INK-128 10 µM; for OATP1B1-mediated transport of [3H]-E1S after pre-incubation / OATP1B1-mediated transport of [3H]-rosuvastatin after pre-incubation: 1 h pre-incubation, EVR 0.1 or 0.2–10 µM, SIR 0.1–5 µM, 0.5 min, concentration-dependent, p<0.001; for OATP1B1-mediated transport of [3H]-E1S after pre-incubation: E1S 25 nM; for OATP1B1-mediated transport of [3H]-rosuvastatin after pre-incubation: rosuvastatin 20 nM
OATP1B3 [6] = biological target: T2, OATP1B3 (Homo sapiens, UniProt Q9NPD5); test: Inhibition of OATP1B3-mediated [3H]-CCK-8 transport in HEK293-OATP1B3 cells; assay type: cell-based; details: washing; for OATP1B3-mediated transport ([3H]-CCK-8 accumulation): 1 h pre-incubation alone: EVR 0.2 µM, SIR 0.5 µM, INK-128 10 µM; for OATP1B3-mediated [3H]CCK-8 accumulation: 1 h pre-incubation with EVR 0.2 µM
T2 sequence (Q9NPD5 1-702): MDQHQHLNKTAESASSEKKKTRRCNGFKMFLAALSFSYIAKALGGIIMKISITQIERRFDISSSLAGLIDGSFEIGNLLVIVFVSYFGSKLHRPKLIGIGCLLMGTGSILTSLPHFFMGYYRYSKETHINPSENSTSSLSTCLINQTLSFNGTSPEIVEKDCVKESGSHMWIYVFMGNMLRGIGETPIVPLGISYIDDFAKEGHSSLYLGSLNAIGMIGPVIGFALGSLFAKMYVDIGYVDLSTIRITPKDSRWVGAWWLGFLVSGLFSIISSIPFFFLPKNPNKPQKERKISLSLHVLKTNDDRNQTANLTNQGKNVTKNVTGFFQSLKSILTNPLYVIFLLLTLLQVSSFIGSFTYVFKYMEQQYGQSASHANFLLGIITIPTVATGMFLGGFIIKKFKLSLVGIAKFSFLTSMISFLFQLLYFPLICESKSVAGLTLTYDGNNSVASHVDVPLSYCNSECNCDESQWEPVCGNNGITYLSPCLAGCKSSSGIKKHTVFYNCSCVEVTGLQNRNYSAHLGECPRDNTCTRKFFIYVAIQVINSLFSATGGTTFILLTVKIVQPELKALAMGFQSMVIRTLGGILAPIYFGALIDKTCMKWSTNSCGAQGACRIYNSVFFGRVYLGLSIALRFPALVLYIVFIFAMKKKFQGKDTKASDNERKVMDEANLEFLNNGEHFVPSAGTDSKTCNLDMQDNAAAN

OATP1B1 [7] = biological target: T1, OATP1B1; test: Transport kinetics of OATP1B1-mediated E217βG transport in HEK293 cells; assay type: cell-based; details: co-incubation with 5 µM inhibitor, without pre-incubation
HEK293-OATP1B3 = details: 1 h pre-incubation, EVR 0.001–10 µM, SIR 0.01–5 µM
OATP1B1 [8] = biological target: T1, OATP1B1; test: Static R-value model for OATP1B1-mediated DDI
OATP1B3 [9] = biological target: T2, OATP1B3; details: cited from earlier work
OATP1B1 [10] = biological target: T1, OATP1B1; details: read-out: reported Km for OATP1B1; HEK293 cells; cited from earlier work
[11] = IC50, [3H]-E1S (25 nM, 0.5 min), co-incubation
[12] = IC50, [3H]-E1S (25 nM, 0.5 min), pre+co-incubation (1 h pre-incubation)
[13] = IC50, [3H]-E217βG (1 µM, 2 min), co-incubation
[14] = IC50, [3H]-E217βG (1 µM, 2 min), pre+co-incubation (1 h pre-incubation)
[15] = IC50, [3H]-rosuvastatin (20 nM, 0.5 min), co-incubation
[16] = IC50, [3H]-rosuvastatin (20 nM, 0.5 min), pre+co-incubation (1 h pre-incubation)
[17] = from co-incubation IC50, rosuvastatin
[18] = from pre+co-incubation IC50, E217βG
[19] = from pre+co-incubation IC50, rosuvastatin

Compound	IC50 (OATP1B1 [2])	toxicity (LDH assay) (HEK293-OATP1B1)	phosphorylation of AKT at S473 (mTOR C2)	inhibition of OATP1A2 (OATP1A2)	amount of phosphorylated p70S6K at T389 (mTOR C1)	OATP1B1-mediated transport ([3H]-E217βG accumulation) (OATP1B1 [5]; washing)	OATP1B1-mediated transport of [3H]-E1S after pre-incubation (OATP1B1 [5])	OATP1B1-mediated transport of [3H]-rosuvastatin after pre-incubation (OATP1B1 [5])	IC50 (OATP1B1 [5]; [11])	IC50 (OATP1B1 [5]; [12])	IC50 (OATP1B1 [5]; [13])	IC50 (OATP1B1 [5]; [14])	IC50 (OATP1B1 [5]; [15])	IC50 (OATP1B1 [5]; [16])	OATP1B3-mediated transport ([3H]-CCK-8 accumulation) (OATP1B3 [6])	effect on Vmax of OATP1B1 (OATP1B1 [7])	increase of Km of OATP1B1 (OATP1B1 [7])	toxicity (LDH assay) (HEK293-OATP1B3)	R (OATP1B1 [8]; [17])	R (OATP1B1 [8]; [18])	further results
CO[C@H]1C[C@@H]2CC[C@@H](C)[C@@](O)(O2)C(=O)C(=O)N2CCCC[C@H]2C(=O)O[C@H]([C@H](C)C[C@@H]2CC[C@@H](OCCO)[C@H](OC)C2)CC(=O)[C@H](C)/C=C(\C)[C@@H](O)[C@@H](OC)C(=O)[C@H](C)C[C@H](C)/C=C/C=C/C=C/1C [EVR, everolimus]	4100 ± 1100 nM	negligible toxicity	did not inhibit	inhibit	markedly reduced	0.67 ± 0.02 fold of control	significantly decreased	significantly decreased	610 ± 80 nM	160 ± 20 nM	480 ± 70 nM	230 ± 60 nM	1580 ± 920 nM	190 ± 70 nM	0.60 ± 0.03 fold of control	1.2–1.7 fold vs. CTL	6–10 fold	negligible toxicity	1.03 (1.02–1.09)	1.19 (1.16–1.26)	basolateral-to-apical vs apical-to-basolateral transport (P-gp): ~ 20 fold; Compound type [1]: Neutral; erythrocyte binding [3]: approximately 85%; Ki (CYP3A5; CYP3A5): 90 nM; fu,mic (CYP3A5): 0.14; Vss [4]: 1.55 (CV 36.0%) L/kg; steady-state AUC vs single dose AUC [4]: approximately 1.5 fold higher; time to steady state ([4]; multiple doses, 10 mg daily): around 7 days; Ki (CYP3A4; CYP3A4): 90 nM; fu,mic (CYP3A4): 0.14; Ki (OATP1B1 [5]): 22 nM; OATP1B1-mediated rosuvastatin accumulation (OATP1B1 [5]; 1 h pre-incubation with EVR 0.2 µM, washing, 4 h in fresh EVR-free medium): 0.87 ± 0.03 fold of CTL; OATP1B1-mediated transport of [3H]rosuvastatin (OATP1B1 [5]; after 1 h pre-incubation with EVR 0.2 µM, washing): 0.54 ± 0.07 fold of control; OATP1B3-mediated [3H]CCK-8 accumulation (OATP1B3 [6]; 4 h in EVR-free medium): 0.76 ± 0.04 fold of CTL; OATP1B3-mediated [3H]CCK-8 accumulation (OATP1B3 [6]; 6 h in EVR-free medium): 0.73 ± 0.04 fold of CTL; OATP1B3-mediated [3H]CCK-8 accumulation (OATP1B3 [6]; 22 h in EVR-free medium): 0.81 ± 0.06 fold of CTL; OATP1B3-mediated transport of [3H]CCK-8 (OATP1B3 [6]; after 1 h pre-incubation with EVR 0.2 µM): 0.76 ± 0.05 fold of control; R (OATP1B1 [8]; [19]): 1.23 (1.10–1.42)
cholecystokinin 8 [CCK-8]	–	–	–	–	–	–	–	–	–	–	–	–	–	–	–	–	–	–	–	–	Km (OATP1B3 [9]): 3.8 µM
CO[C@H]1C[C@@H]2CC[C@@H](C)[C@@](O)(O2)C(=O)C(=O)N2CCCC[C@H]2C(=O)O[C@H]([C@H](C)C[C@@H]2CC[C@@H](O)[C@H](OC)C2)CC(=O)[C@H](C)/C=C(\C)[C@@H](O)[C@@H](OC)C(=O)[C@H](C)C[C@H](C)/C=C/C=C/C=C/1C [SIR, sirolimus]	9800 ± 1100 nM	negligible toxicity	did not inhibit	inhibit	markedly reduced	0.60 ± 0.05 fold of control	significantly decreased	significantly decreased	830 ± 100 nM	650 ± 120 nM	640 ± 160 nM	220 ± 40 nM	560 ± 300 nM	320 ± 110 nM	0.49 ± 0.03 fold of control	1.2–1.7 fold vs. CTL	6–10 fold	negligible toxicity	1.00 (1.00–1.03)	1.01 (1.01–1.02)	time to steady state ([4]; multiple twice daily doses of 0.5–6.5 mg/m^2, stable renal transplant patients): 5 to 7 days; R (OATP1B1 [8]): 1.00 (1.00–1.01); R (OATP1B1 [8]; [19]): 1.01 (1.01–1.03); R (OATP1B1 [8]; from the previously published co-incubation IC50 (E1S, ref 24)): 1.00
C[C@]12CC[C@@H]3c4ccc(O)cc4CC[C@H]3[C@@H]1CC[C@@H]2O[C@@H]1O[C@H](C(=O)O)[C@@H](O)[C@H](O)[C@H]1O [E217βG, estradiol 17 β-D-glucuronide]	–	–	–	–	–	–	–	–	–	–	–	–	–	–	–	–	–	–	–	–	Km (OATP1B1 [10]): 8.29 µM
CC(C)n1nc(-c2ccc3oc(N)nc3c2)c2c(N)ncnc21 [INK-128]	–	–	markedly reduced	–	markedly reduced	did not significantly affect	–	–	–	–	–	–	–	–	did not significantly affect	–	–	–	–	–	–
C[C@]12CC[C@@H]3c4ccc(OS(=O)(=O)O)cc4CC[C@H]3[C@@H]1CCC2=O [E1S, estrone-3-sulfate]	–	–	–	–	–	–	–	–	–	–	–	–	–	–	–	–	–	–	–	–	Km (OATP1B1 [10]): 0.46 µM
